# Test results as given in ChEMBL document CHEMBL1201862, “PubChem BioAssay data set” (2004).
#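 A five-concentration, 48-hour dose response in 96-well plates underlies each endpoint, interpolated linearly between surrounding concentrations. Abbreviation: GI50, concentration required for 50% inhibition of growth.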 Calls of active or inactive are those of the source. No stated cut-off is given here; in the data, active = GI50 up to about 1.1 µM and inactive = higher. Positions of bridges follow the written chain, without caps; N, C: chain ends. Non-standard residues stand in square brackets, D forms with d. Residues, ends and D or L forms follow the SMILES beside them. ξ: configuration not given here. *: point of attachment. X28 = O=C(/C=C/C=C/C=C/C=C/C=C/C(=O)*)NC1=C(O)CCC1=O; Pro(4R-Me) = C[C@H]1CN[C@H](C(=O)O)C1; NMeA = CN[C@@H](C)C(=O)O; ξF = NC(Cc1ccccc1)C(=O)O; ξA = CC(N)C(=O)O
# Key:
# Test in all cases: NCI anticancer screen, dose series, 48 h
# UACC-257 = tested on: UACC-257
# MDA-MB-435 = tested on: MDA-MB-435
# OVCAR-8 = tested on: OVCAR-8
# SK-MEL-5 = tested on: SK-MEL-5
# BT-549 = tested on: BT-549
# DU-145 = tested on: DU-145
# ACHN = tested on: ACHN
# TK-10 = tested on: TK-10
# NCI-H522 = tested on: NCI-H522
# PC-3 = tested on: PC-3
# RXF 393 = tested on: RXF 393
# M14 = tested on: M14
# HCC 2998 = tested on: HCC 2998
# SK-MEL-28 = tested on: SK-MEL-28
# SNB-19 = tested on: SNB-19
# HOP-92 = tested on: HOP-92
# A549 = tested on: A549
# IGROV-1 = tested on: IGROV-1
# UO-31 = tested on: UO-31
# HCT-116 = tested on: HCT-116
SMILES,GI50 (UACC-257),GI50 (MDA-MB-435),GI50 (OVCAR-8),GI50 (SK-MEL-5),GI50 (BT-549),GI50 (DU-145),GI50 (ACHN),GI50 (TK-10),GI50 (NCI-H522),GI50 (PC-3),GI50 (RXF 393),GI50 (M14),GI50 (HCC 2998),GI50 (SK-MEL-28),GI50 (SNB-19),GI50 (HOP-92),GI50 (A549),GI50 (IGROV-1),GI50 (UO-31),GI50 (HCT-116)
Cc1ccc(-c2n[nH]c(=O)n2/N=C\c2ccc([N+](=O)[O-])cc2)cc1,> 100 µM (inactive),35 µM (inactive),> 100 µM (inactive),92.9 µM (inactive),54.1 µM (inactive),> 100 µM (inactive),> 80.5 µM (inactive),> 100 µM (inactive),> 100 µM (inactive),> 100 µM (inactive),> 73.8 µM (inactive),58.2 µM (inactive),> 100 µM (inactive),> 100 µM (inactive),> 100 µM (inactive),> 74.3 µM (inactive),> 100 µM (inactive),> 100 µM (inactive),> 93.3 µM (inactive),72.6 µM (inactive)
Oc1cccc(-c2cn3cc(C(F)(F)F)ccc3n2)c1,22.9 µM (inactive),32 µM (inactive),27.8 µM (inactive),22.5 µM (inactive),37.2 µM (inactive),18.6 µM (inactive),39.9 µM (inactive),22.5 µM (inactive),13.5 µM (inactive),32.2 µM (inactive),13.8 µM (inactive),39.3 µM (inactive),22.6 µM (inactive),61.9 µM (inactive),70.1 µM (inactive),55.2 µM (inactive),28.6 µM (inactive),20.4 µM (inactive),0.338 µM (active),39.9 µM (inactive)
CC1NC(=O)[C@H](C)N(C)C(=O)[C@@H]2CCCN2C(=O)[C@@H](NC(=O)C(Cc2ccccc2)NC(=O)/C=C/C=C/C=C/C=C/C=C/C(=O)NC2=C(O)CCC2=O)COC(=O)[C@@H]2C[C@@H](C)CN2C1=O (stereo partly drawn) (X28-[ξF]SP[NMeA][ξA][Pro(4R-Me)]; ester 2-C),> 100 µM (inactive),> 100 µM (inactive),–,> 100 µM (inactive),> 100 µM (inactive),> 100 µM (inactive),> 100 µM (inactive),54.8 µM (inactive),> 100 µM (inactive),> 100 µM (inactive),> 100 µM (inactive),> 100 µM (inactive),> 100 µM (inactive),> 100 µM (inactive),> 100 µM (inactive),> 100 µM (inactive),> 100 µM (inactive),> 100 µM (inactive),> 100 µM (inactive),> 100 µM (inactive)
COC(=O)Cc1cc(O)c2c(c1O)C(=O)c1ccccc1C2=O,> 100 µM (inactive),> 100 µM (inactive),> 100 µM (inactive),68.2 µM (inactive),> 62.4 µM (inactive),> 96.2 µM (inactive),> 57.1 µM (inactive),39.4 µM (inactive),> 100 µM (inactive),> 100 µM (inactive),30.3 µM (inactive),> 100 µM (inactive),> 100 µM (inactive),> 100 µM (inactive),38.5 µM (inactive),16.1 µM (inactive),> 100 µM (inactive),> 83.8 µM (inactive),> 100 µM (inactive),> 71 µM (inactive)
Oc1cccc2c(Br)ccnc12,2.48 µM (inactive),5.92 µM (inactive),1.22 µM (inactive),2.74 µM (inactive),8.93 µM (inactive),3.89 µM (inactive),2.58 µM (inactive),32.7 µM (inactive),3.16 µM (inactive),4.17 µM (inactive),4.65 µM (inactive),1.98 µM (inactive),14.7 µM (inactive),12.3 µM (inactive),7.71 µM (inactive),5.71 µM (inactive),4.34 µM (inactive),2.12 µM (inactive),2.84 µM (inactive),1.4 µM (inactive)
CC[C@@]1(OC(=O)CN(C)C)C(=O)OCc2c1cc1n(c2=O)Cc2cc3ccccc3nc2-1,0.11 µM (active),0.194 µM (active),0.0596 µM (active),0.0328 µM (active),0.0536 µM (active),0.013 µM (active),0.00875 µM (active),1.93 µM (inactive),0.255 µM (active),0.0973 µM (active),0.139 µM (active),0.0525 µM (active),0.145 µM (active),0.308 µM (active),0.0208 µM (active),0.119 µM (active),0.0365 µM (active),0.242 µM (active),0.0296 µM (active),0.0481 µM (active)
C=C1CC2[C@H](C)C(=O)CCC2(C)C2=C1C1CCC(C(C)CCC(=C)C(C)C(=O)O)C1(C)CC2=O (some centres undefined),29.2 µM (inactive),58.5 µM (inactive),75.7 µM (inactive),31.3 µM (inactive),37.2 µM (inactive),53.1 µM (inactive),31.9 µM (inactive),44.9 µM (inactive),47.1 µM (inactive),32.1 µM (inactive),30.1 µM (inactive),> 100 µM (inactive),47 µM (inactive),> 100 µM (inactive),69.5 µM (inactive),29.7 µM (inactive),66.7 µM (inactive),56.9 µM (inactive),30.9 µM (inactive),32.5 µM (inactive)
